# According to patent publication US20030118631A1, “Anti-microbial soluble hemostatic gauze and method of making same” (priority 2001, published 2003):
# Assays:
# Lactobacillus Plantarum = experiment: Agar dilution minimum inhibition concentration, anaerobic growth base; format: cell-based; details: anaerobic (nitrogen), 37° C., 48 hours, mg antibiotic per liter
# Streptococcus Faccalis = experiment: Agar dilution minimum inhibition concentration, aerobic growth base; format: cell-based; details: 37° C., 48 hours, mg antibiotic per liter
# [1] = tested on: Bacillus Canalis Capsulatus; experiment: as above; format: cell-based; details: 37° C., 48 hours, mg antibiotic per liter
# Citrobacter Sp. = experiment: as above; format: cell-based; details: 37° C., 48 hours, mg antibiotic per liter
# Bacteroides Vulgatus = details: anaerobic (nitrogen), 37° C., 48 hours, mg antibiotic per liter
# Description: (§1) To measure the effectiveness of the our antimicrobial gauze, we tested an antibiotic containing soluble hemostatic gauze material made in accordance with the present invention against the same antibiotic alone. We prepared a growth base for anaeroboic bacteria by mixing 20 grams glucose, 5 grams NaCl, 10 grams protein base, 5 grams yeast powder, 3 grams soluble starch, 20 grams agar and 0.4 grams amino acid. These materials were dissolved in 150 ml distilled water to form a liver paste solution. Then we added 1000 ml. water, adjusted the Ph to 7.2 and autoclaved the material. We prepared another growth base for aerobic bacteria by combining 10 grams beef paste, 10 grams protein base, 3 grams soluble starch, 5 grams NaCl and 20 grams agar in distilled water. Then we added 1000 ml. water, adjusted the Ph to 7.2 and autoclaved the material. We also prepared a series of solutions of the antibiotic chlindamycin in a Ph7.8 phospharese solution. The solutions were: 1280 mg antibiotic/L, 640 mg/L, 320 mg/l, 160 mg/L, 80 mg/L, 40 mg/L, 20 mg/l, 10 mg/L, 5 mg/L, 2.5 mg/L and 1.25 mg/L. We then added 2 ml of each of the diluted antibiotic solutions into a petri dish. Next we added 18 ml of warm (50° C.) autoclaved bacteria growth base prepared as described above for the type of bacteria (anaerobic or aerobic) to be tested to petri dishes to make growth plates. At that point we had growth plates with final antibiotic concentrations of 128, 64, 32, 16, 8, 4, 2, 1, 0.5, 0.25, and 0.125 mg antibiotic per liter.
# (§2) We prepared a second series of growth bases with anti-microbial soluble hemostatic gauze to which the antibiotic chlindamycin had been linked. The gauze was prepared in accordance with the following steps.
# Actinomyces = details: anaerobic (nitrogen), 37° C., 48 hours, mg antibiotic per liter
# Description: as §1, §2
# Peptostrepococcus = details: anaerobic (nitrogen), 37° C., 48 hours, mg antibiotic per liter
# Description: as §1, §2
# Fusobacterium Nuleatum = experiment: Agar dilution minimum inhibition concentration, anaerobic growth base; format: cell-based; details: anaerobic (nitrogen), 37° C., 48 hours, mg antibiotic per liter
# [2] = tested on: Lactobacillus Acidophilus; experiment: as above; format: cell-based; details: anaerobic (nitrogen), 37° C., 48 hours, mg antibiotic per liter
# Klebsiella Pneumoniae = experiment: Agar dilution minimum inhibition concentration, aerobic growth base; format: cell-based; details: 37° C., 48 hours, mg antibiotic per liter
# Staphylococcus Aureus = experiment: as above; format: cell-based; details: 37° C., 48 hours, mg antibiotic per liter
# Pseudomonas Aeruginosa = experiment: as above; format: cell-based; details: 37° C., 48 hours, mg antibiotic per liter
# Bifidobacterium Longum = experiment: Agar dilution minimum inhibition concentration, anaerobic growth base; format: cell-based; details: anaerobic (nitrogen), 37° C., 48 hours, mg antibiotic per liter
# Clostridium Perfringens = format: cell-based; details: anaerobic (nitrogen), 37° C., 48 hours, mg antibiotic per liter
# Bifidobacterium Infantis = experiment: Agar dilution minimum inhibition concentration, anaerobic growth base; format: cell-based; details: anaerobic (nitrogen), 37° C., 48 hours, mg antibiotic per liter
# Bacteroides Ovatus = experiment: as above; format: cell-based; details: anaerobic (nitrogen), 37° C., 48 hours, mg antibiotic per liter
# Serratia = experiment: Agar dilution minimum inhibition concentration, aerobic growth base; format: cell-based; details: 37° C., 48 hours, mg antibiotic per liter
# Bacillus Coli Immobilis = experiment: as above; format: cell-based; details: 37° C., 48 hours, mg antibiotic per liter
# Streptococcus Gamma = experiment: as above; format: cell-based; details: 37° C., 48 hours, mg antibiotic per liter
# Propionibacterium = experiment: Agar dilution minimum inhibition concentration, anaerobic growth base; format: cell-based; details: anaerobic (nitrogen), 37° C., 48 hours, mg antibiotic per liter
# Bacteroides Fragilis = experiment: as above; format: cell-based; details: anaerobic (nitrogen), 37° C., 48 hours, mg antibiotic per liter
# [3] = tested on: Staphylococcus Epidermidis; experiment: Agar dilution minimum inhibition concentration, aerobic growth base; format: cell-based; details: 37° C., 48 hours, mg antibiotic per liter
# Bacillus Coli Similis = experiment: as above; format: cell-based; details: 37° C., 48 hours, mg antibiotic per liter
# Bacillus Pyocyaneus = experiment: as above; format: cell-based; details: 37° C., 48 hours, mg antibiotic per liter
# Streptococcus Psittac = experiment: as above; format: cell-based; details: 37° C., 48 hours, mg antibiotic per liter
# [4] = tested on: Bifidobacterium Adolescents; experiment: Agar dilution minimum inhibition concentration, anaerobic growth base; format: cell-based; details: anaerobic (nitrogen), 37° C., 48 hours, mg antibiotic per liter
structure (smiles),measurement,setting,value
"CCC[C@@H]1C[C@@H](C(=O)N[C@@H]([C@H]2O[C@H](SC)[C@H](O)[C@@H](O)[C@H]2O)[C@H](C)Cl)N(C)C1 [Chlindamycin, chlindamycin]",Minimum Inhibited Concentration,Lactobacillus Plantarum,64 mg/L
same,Minimum Inhibited Concentration,Streptococcus Faccalis,1 mg/L
same,Minimum Inhibited Concentration,[1],64 mg/L
same,Minimum Inhibited Concentration,Citrobacter Sp.,64 mg/L
same,Minimum Inhibited Concentration,Bacteroides Vulgatus,0.125 mg/L
same,Minimum Inhibited Concentration,Actinomyces,0.125 mg/L
same,Minimum Inhibited Concentration,Peptostrepococcus,0.125 mg/L
same,Minimum Inhibited Concentration,Fusobacterium Nuleatum,4 mg/L
same,Minimum Inhibited Concentration,[2],32 mg/L
same,Minimum Inhibited Concentration,Klebsiella Pneumoniae,32 mg/L
same,Minimum Inhibited Concentration,Staphylococcus Aureus,1 mg/L
same,Minimum Inhibited Concentration,Pseudomonas Aeruginosa,128 mg/L
same,Minimum Inhibited Concentration,Bifidobacterium Longum,64 mg/L
same,Minimum Inhibited Concentration,Clostridium Perfringens,0.125 mg/L
same,Minimum Inhibited Concentration,Bifidobacterium Infantis,64 mg/L
same,Minimum Inhibited Concentration,Bacteroides Ovatus,2 mg/L
same,Minimum Inhibited Concentration,Serratia,32 mg/L
same,Minimum Inhibited Concentration,Bacillus Coli Immobilis,128 mg/L
same,Minimum Inhibited Concentration,Streptococcus Gamma,1 mg/L
same,Minimum Inhibited Concentration,Propionibacterium,0.25 mg/L
same,Minimum Inhibited Concentration,Bacteroides Fragilis,0.5 mg/L
same,Minimum Inhibited Concentration,[3],0.5 mg/L
same,Minimum Inhibited Concentration,Bacillus Coli Similis,128 mg/L
same,Minimum Inhibited Concentration,Bacillus Pyocyaneus,128 mg/L
same,Minimum Inhibited Concentration,Streptococcus Psittac,1 mg/L
same,Minimum Inhibited Concentration,[4],16 mg/L
